# Legend:
# [1] = test system: SDF-1 induced platelet aggregation; assay: Inhibition of SDF-1 induced platelet aggregation; format: cell-based, human
# Procedure: (§1) Blood collection and platelet preparation. Human blood was collected from antecubital veins of healthy male or female, aspirin-free volunteers into syringes containing heparin (10 units/ml final concentration) for flow cytometry studies or sodium citrate (0.38% final concentration) for aggregation studies. Platelet rich plasma (PRP) was prepared by centrifugation of whole blood at 150 g for 15 minutes. Platelet poor plasma (PPP) was prepared by centrifugation of PRP at 1200 g for 15 minutes.
# (§2) Aggregation studies. Experiments were performed using a Chrono-Log model 560 vs or 490-2D aggregometer (Havertown, Pa.). Aliquots of PRP (0.50 ml or 0.45 ml) with a platelet concentration of […] were incubated at 37° C. and stirred at 1000 rpm. Chemokines (PeproTech Inc., Rocky Hill, N.J., except SDF-1β, which was obtained from Genetics Institute, Boston, Mass.) were added and aggregation was measured as a percent change in optical density, with the instrument calibrated to yield 0% change in optical density for PRP and with the PPP 100% standard for change in optical density. Aggregation scale was set so that maximal aggregation gave 85-90% chart deflection. Inhibition experiments were done using CXCR4 mAb 12G5 (R&D, Minneapolis, Minn.), polyclonal anti-SDF-1 (R&D, Minneapolis, Minn.), pertussis toxin (Sigma, St. Louis, Mo.), wortmannin (Sigma), genestein (Sigma), and aspirin (Sigma). DMSO was used as vehicle for genestein and wortmannin and 1N NaOH was used as a vehicle for aspirin.
# human platelets [2] = assay: Chemokine-induced platelet aggregation in platelet rich plasma (aggregometer); format: cell-based
# Procedure: as §1, §2
# human platelets [3] = assay: SDF-1 induced calcium flux in fura-2 loaded platelets; format: cell-based; details: SDF-1 50-100 nM, fura-2 340/380 ratio
# Procedure: Calcium flux. Fura-2 loaded platelets were prepared from acid citrate dextrose anti-coagulated blood (Rink et al., J. Physiol. 393: 513-24, 1987). PRP was collected by centrifugation for 15 minutes at 200 g and 100 μM aspirin was added. Platelets were then loaded with fura-2 by incubating PRP with 2 μM acetoxymethyl ester of fura-2 (fura-2 AM; Molecular Probes, Inc., Eugene, Oreg.) for 45 minutes at 37° C. in the dark. PRP was then centrifuged at 1500 g for 10 minutes and the pellet washed and resuspended in a buffer containing 145 mM NaCl, 4 mM KCl, 1 mM NaH2PO4, 0.8 mM MgCl2, 1.8 mM CaCl2, 25 mM Hepes and 22 mM glucose. Changes in cytosolic free calcium were determined after addition of SDF-1 (500 or 1000 ng/ml) by monitoring the excitation fluorescence intensity emitted at 510 nm in response to sequential excitation at 340 nm and 380 nm using a Delta RAM (Random Access Monochromator) fluorimeter (Photon Technology International, Monmouth Junction, N.J.). The data are presented as the relative ratio of fluorescence at 340/380 nm.
# [4] = test system: resting T-cells, monocytes, B cell precursors, natural killer cells and CD34+ stem cells; details: Bleul et al. 1996; Campbell et al. 1998; cited from earlier work
molecule,measurement,setting,value
"O=c1c(-c2ccc(O)cc2)coc2cc(O)cc(O)c12 [Genestein, genestein]",effect on SDF-1 induced platelet aggregation,"[1]; genestein 200 μM, 5 minutes preincubation, FIG. 5B",decreased SDF-1 platelet aggregation
SDF-1: chemokine stromal derived factor-1; α or β form not specified at the place,induction of platelet aggregation,"human platelets [2]; 40 nM chemokine, FIG. 1A",induced platelet aggregation
same,donors responding with only primary aggregation,human platelets [2]; out of twelve donors tested,two
same,donors with full primary and secondary aggregation response,human platelets [2]; out of twelve donors tested,ten
same,increase in cytosolic calcium,human platelets [3],induced an increase in cytosolic calcium
same,concentration giving maximal chemotaxis,[4],10 to 100 nM
"CC(=O)Oc1ccccc1C(=O)O [Aspirin, aspirin]",effect on SDF-1 induced platelet aggregation,"[1]; aspirin 1 mM, FIG. 5A",inhibited SDF-1 induced secondary aggregation
pertussis toxin,effect on SDF-1 induced platelet aggregation,"[1]; pertussis toxin 1.7 nM, 30 minute preincubation, SDF-1α 80 ng/ml, FIG. 4B",blocked
SDF-1α,concentration at which a primary and secondary response was observed,human platelets [2]; FIGS. 1B and 1C,12.5 to 25 nM
same,concentration that only induced the primary phase of aggregation,human platelets [2]; FIGS. 1B and 1C,6.2 nM

# — patent US20010033841A1, “Modulating platelet function” (priority 1998, published 2001)
